Reference: patent US11826326B2, “Benzoic acid or a salt and derivative thereof for use in preventing or treating depression” (EXCELSIOR PHARMATECH LABS, priority 2017, dated 2023)

Assays:
[1] = tested on: D-amino acid oxidase (DAAO); conditions: cited from earlier work
patients with dementia = conditions: depression in patients with dementia; cited from earlier work
patients with MDD [2] = assay: Global assessment of function (GAF) in randomized, double-blind, placebo-controlled trial; type: in vivo, human; conditions: for GAF Difference, Mean ± SD: baseline to week 8, 250-1500 mg/day, n = 20, table p 0.103 vs placebo
Method: (§1) It was conducted a randomized, double-blind, placebo-controlled trial in Taiwan. […] At the baseline and at the end of week 2, 4, 6 and 8, the assessments of 17-Item Hamilton rating scale for depression (HAMD-17) (Hamilton 1960), perceived stress scale (PSS), and global assessment of function (GAF) were arranged.
(§2) Patients were evaluated by research psychiatrists after a thorough medical and neurological workup. The structured clinical interview for DSM-IV (SCID) (American Psychiatric Association 1994) was conducted for diagnosis, and eligible patients diagnosed with MDD by DSM-IV (American Psychiatric Association 1994b) were recruited. […] The dosage of study drugs was adjusted according to clinical evaluation.
(§3) The data analyses were based on the intent-to-treat principle. The last observation carried forward was used to analyze all available data from the entire sample (i.e., cases with complete and incomplete data). A level of 0.05 (two-sided value) for type I errors was adopted for all analyses for statistical significance. Demographic characteristics, baseline and endpoint symptomatology were compared between two groups by t test (or Mann-Whitney U test) for continuous variables and chi-square test (or Fisher's exact test) for categorical variables.

patients with MDD [3] = assay: 17-Item Hamilton rating scale for depression (HAMD-17) in randomized, double-blind, placebo-controlled trial; type: in vivo, human; conditions: for HAMD-17 Difference, Mean ± SD: baseline to week 8, 250-1500 mg/day, n = 20, p=0.011 vs placebo; for HAMD-17 score before treatment: baseline
Method: as §1
as §2, with “This study was a pilot eight weeks trial with the aim of examining sodium benzoate for the treatment of MDD. Patients” for “Patients”
as §3

patients with MDD [4] = assay: Mini-mental state examination (MMSE) score of single subjects of the treatment group; type: in vivo, human; conditions: for MMSE score before treatment: baseline
Source text: At the same time, the mini-mental state examination (MMSE) score, which is used to evaluate cognitive impairment, has improved from 26 to 30. […] Furthermore, person two has a decrease of HAMD-17 score from 26 to 12, and improved cognitive function as shown by an increased MMSE score from 23 to 26.

patients with MDD [5] = assay: Perceived stress scale (PSS) in randomized, double-blind, placebo-controlled trial; type: in vivo, human; conditions: for PSS Difference, Mean ± SD: baseline to week 8, 250-1500 mg/day, n = 20, p=0.022 vs placebo
Method: as §1
as §2, with “This study was a pilot eight weeks trial with the aim of examining sodium benzoate for the treatment of MDD. Patients” for “Patients”
as §3

patients with MDD [6] = assay: Safety assessment: UKU side-effects rating scale, routine laboratory tests, EKG, dropout; type: in vivo, human
Method: In addition, the assessments of systemic side effects were examined biweekly by routine physical and neurological examinations and the Udvalg for Kliniske Undersogelser (UKU) side-effects rating scale (Lingjaerde, Ahlfors et al. 1987). The routine laboratory tests, including complete blood count (CBC), biochemistry, urine analysis and electrocardiogram (EKG), were checked at the baseline and at the end of week 8.
Further, clinical assessment of safety was performed every week during the study period by face-to-face or telephone interview. Drop out was determined by research psychiatrists or patients if continuation of the study was regarded obviously more risky than beneficial.

[7] = week 0, n = 20, before treatment
[8] = single subject one, after 8 weeks
[9] = single subject three, after treatment
[10] = single subject two, after treatment

For `O=C(O)c1ccccc1` [Benzoic acid], the “inhibition of DAAO activity” value [1] is listed as “can inhibit DAAO activity”.
In the case of `CN1CCN2c3ncccc3Cc3ccccc3C2C1` (stereo not drawn) [mirtazapine], the “reduction of depression scores compared with placebo” value (patients with dementia) is given as “did not differ from the placebo group”.
For `CN[C@H]1CC[C@@H](c2ccc(Cl)c(Cl)c2)c2ccccc21` [sertraline], the “reduction of depression scores compared with placebo” value (patients with dementia) is listed as “did not differ from the placebo group”.
With `O=C([O-])c1ccccc1.[Na+]` [sodium benzoate] the “improvement in GAF scores compared with placebo therapy” value (patients with MDD [2]; 8 weeks) was “slightly greater improvement”, the “GAF Difference, Mean ± SD” value (patients with MDD [2]) was 5.5±6.0 and the “GAF Difference, Mean ± SD” value (patients with MDD [2]; listed as Benzoate) was 5.5 ± 6.0. For the same molecule, the “GAF Baseline, Mean ± SD” value (patients with MDD [2]; [7]) was 57.4 ± 8.4, the “improvement in HAMD-17 scores compared with placebo therapy” value (patients with MDD [3]; 8 weeks) was “greater improvement” and the “HAMD-17 Endpoint, Mean ± SD” value (patients with MDD [3]; after 8 weeks, 250-1500 mg/day, n = 20, LOCF) was 19.3 ± 6.4. For the same molecule, the “HAMD-17 Difference, Mean ± SD” value (patients with MDD [3]) was 7.5±4.9, the “HAMD-17 Difference, Mean ± SD” value (patients with MDD [3]; listed as Benzoate) was −7.5 ± 4.9 and the HAMD-17 score decrease (patients with MDD [3]; single subject one, 8 weeks) was 20. For the same molecule, the “HAMD-17 score after treatment” value (patients with MDD [3]; [8]) was 4, the “HAMD-17 score before treatment” value (patients with MDD [3]; single subject one) was 24 and the HAMD-17 score decrease (patients with MDD [3]; single subject three) was 16. The “HAMD-17 score after treatment” value (patients with MDD [3]; [9]) was 15, the “HAMD-17 score before treatment” value (patients with MDD [3]; single subject three) was 31 and the “HAMD-17 score after treatment” value (patients with MDD [3]; [10]) was 12. For the same molecule, the “HAMD-17 score before treatment” value (patients with MDD [3]; single subject two) was 26, the “HAMD-17 Baseline, Mean ± SD” value (patients with MDD [3]; [7]) was 26.7 ± 5.2 and the “MMSE score after treatment” value (patients with MDD [4]; [8]) was 30. For the same molecule, the “MMSE score before treatment” value (patients with MDD [4]; single subject one) was 26, the “MMSE score after treatment” value (patients with MDD [4]; [9]) was 25 and the “MMSE score before treatment” value (patients with MDD [4]; single subject three) was 23. For the same molecule, the “MMSE score after treatment” value (patients with MDD [4]; [10]) was 26, the “MMSE score before treatment” value (patients with MDD [4]; single subject two) was 23 and the “improvement in PSS scores compared with placebo therapy” value (patients with MDD [5]; 8 weeks) was “greater improvement”. For the same molecule, the “PSS Endpoint, Mean ± SD” value (patients with MDD [5]; after 8 weeks, 250-1500 mg/day, n = 20, LOCF, p 0.019 vs placebo) was 28.9 ± 10.8, the “PSS Difference, Mean ± SD” value (patients with MDD [5]) was 6.4±9.9 and the “PSS Difference, Mean ± SD” value (patients with MDD [5]; listed as Benzoate) was −6.4 ± 9.9. For the same molecule, the “PSS Baseline, Mean ± SD” value (patients with MDD [5]; [7]) was 35.2 ± 5.8, the “inhibition of DAAO activity” value [1] was “can inhibit DAAO activity” and the “Treatment-emergent adverse events by UKU side-effects rating scale” value (patients with MDD [6]; 8-week treatment) was “mild and not warranting medical treatment”. The “dropout due to side effects” value (patients with MDD [6]; 8-week treatment) was “No dropout was due to side effects”, the “values of routine CBC, biochemistry and EKG tests after treatment” value (patients with MDD [6]; baseline and end of week 8) was “all within the normal ranges without a significant change” and the “commonly seen side effects of anti-depression medication (nausea, nervousness, restlessness, irregular heart rate, sweating, constipation)” value (patients with MDD [6]; subjects from the treatment group) was “not observed”.
